According to the NIST ThermoML archive (doi:10.1021/je0342320):
Numbers after ± are expanded uncertainties.

Assay: xn = mol fraction of the nth substance listed
Settings: Liquid, Vibrating tube method

CCCCCCCCCC [decane] + COC(=O)OC
mass density [kg/m3]
Settings | 100 kPa | 10000 kPa | 20000 kPa | 30000 kPa | 40000 kPa
288.15 K, x2 = 0.0676 | 741.97 ± 0.44 | 749.1 ± 0.48 | 755.73 ± 0.52 | 761.88 ± 0.57 | 767.71 ± 0.62
288.15 K, x2 = 0.2303 | 767.95 ± 0.46 | 775.45 ± 0.48 | 782.4 ± 0.52 | 788.87 ± 0.56 | 794.93 ± 0.6
288.15 K, x2 = 0.2934 | 780.23 ± 0.46 | 787.82 ± 0.49 | 794.87 ± 0.52 | 801.43 ± 0.55 | 807.54 ± 0.59
288.15 K, x2 = 0.4055 | 804.52 ± 0.48 | 812.34 ± 0.5 | 819.59 ± 0.52 | 826.32 ± 0.55 | 832.65 ± 0.58
288.15 K, x2 = 0.502 | 829.72 ± 0.49 | 837.73 ± 0.51 | 844.78 ± 0.52 | – | –
288.15 K, x2 = 0.5476 | 843.28 ± 0.5 | 851.4 ± 0.51 | – | – | –
288.15 K, x2 = 0.665 | 883.8 ± 0.52 | – | – | – | –
288.15 K, x2 = 0.7101 | 901.71 ± 0.53 | – | – | – | –
288.15 K, x2 = 0.9062 | 1004.68 ± 0.58 | 1013.19 ± 0.59 | 1021.19 ± 0.59 | 1028.63 ± 0.6 | 1035.61 ± 0.6
293.15 K, x2 = 0.0676 | 738.16 ± 0.44 | 745.45 ± 0.48 | 752.25 ± 0.52 | 758.56 ± 0.57 | 764.48 ± 0.62
293.15 K, x2 = 0.2303 | 763.84 ± 0.46 | 771.54 ± 0.48 | 778.69 ± 0.52 | 785.31 ± 0.56 | 791.49 ± 0.6
293.15 K, x2 = 0.2934 | 775.99 ± 0.46 | 783.79 ± 0.49 | 791.01 ± 0.52 | 797.71 ± 0.56 | 803.97 ± 0.59
293.15 K, x2 = 0.4055 | 799.94 ± 0.48 | 807.99 ± 0.5 | 815.46 ± 0.52 | 822.34 ± 0.55 | 828.8 ± 0.58
293.15 K, x2 = 0.502 | 824.83 ± 0.49 | 833.07 ± 0.51 | 840.72 ± 0.53 | 847.8 ± 0.55 | 854.44 ± 0.57
293.15 K, x2 = 0.5476 | 838.17 ± 0.5 | 846.56 ± 0.51 | 854.35 ± 0.53 | 861.57 ± 0.55 | 868.38 ± 0.56
293.15 K, x2 = 0.5883 | 851.08 ± 0.5 | 859.46 ± 0.52 | 867.28 ± 0.53 | 874.53 ± 0.55 | –
293.15 K, x2 = 0.665 | 878.01 ± 0.52 | 886.63 ± 0.53 | 894.64 ± 0.54 | 902.11 ± 0.55 | –
293.15 K, x2 = 0.7101 | 896.39 ± 0.53 | 905.11 ± 0.54 | 913.24 ± 0.54 | 920.82 ± 0.55 | –
293.15 K, x2 = 0.7993 | 936.74 ± 0.55 | 945.44 ± 0.55 | 953.46 ± 0.56 | – | –
293.15 K, x2 = 0.9062 | 998.35 ± 0.58 | 1007.19 ± 0.59 | 1015.43 ± 0.59 | 1023.08 ± 0.59 | 1030.28 ± 0.6
298.15 K, x2 = 0.0676 | 734.31 ± 0.44 | 741.8 ± 0.48 | 748.75 ± 0.52 | 755.23 ± 0.57 | 761.28 ± 0.62
298.15 K, x2 = 0.2303 | 759.7 ± 0.46 | 767.62 ± 0.48 | 774.95 ± 0.52 | 781.73 ± 0.56 | 788.05 ± 0.6
298.15 K, x2 = 0.2934 | 771.64 ± 0.46 | 779.68 ± 0.49 | 787.1 ± 0.52 | – | 800.4 ± 0.6
298.15 K, x2 = 0.4055 | 795.37 ± 0.48 | 803.65 ± 0.5 | 811.3 ± 0.52 | 818.38 ± 0.55 | 825 ± 0.58
298.15 K, x2 = 0.502 | 819.95 ± 0.49 | 828.44 ± 0.5 | 836.29 ± 0.53 | 843.57 ± 0.55 | 850.35 ± 0.57
298.15 K, x2 = 0.5476 | 833.19 ± 0.5 | 841.77 ± 0.51 | 849.77 ± 0.53 | 857.18 ± 0.55 | 864.11 ± 0.57
298.15 K, x2 = 0.5883 | 845.93 ± 0.5 | 854.59 ± 0.51 | 862.62 ± 0.53 | 870.04 ± 0.55 | 876.98 ± 0.56
298.15 K, x2 = 0.665 | 872.69 ± 0.52 | 881.52 ± 0.53 | 889.73 ± 0.54 | 897.31 ± 0.55 | 904.39 ± 0.56
298.15 K, x2 = 0.7101 | 890.82 ± 0.53 | 899.75 ± 0.53 | 908.1 ± 0.54 | 915.87 ± 0.55 | 923.09 ± 0.56
298.15 K, x2 = 0.7993 | 930.88 ± 0.55 | 939.91 ± 0.55 | 948.28 ± 0.56 | 956.06 ± 0.56 | –
298.15 K, x2 = 0.9062 | 992.18 ± 0.58 | 1001.24 ± 0.58 | 1009.74 ± 0.59 | 1017.62 ± 0.59 | 1025.01 ± 0.6
303.15 K, x2 = 0.0676 | 730.48 ± 0.44 | 738.15 ± 0.48 | 745.3 ± 0.52 | 751.9 ± 0.57 | 758.05 ± 0.63
303.15 K, x2 = 0.2303 | 755.57 ± 0.46 | 763.68 ± 0.48 | 771.21 ± 0.52 | 778.15 ± 0.56 | 784.61 ± 0.61
303.15 K, x2 = 0.2934 | 767.36 ± 0.46 | 775.58 ± 0.49 | 783.23 ± 0.52 | 790.27 ± 0.56 | 796.82 ± 0.6
303.15 K, x2 = 0.4055 | 790.78 ± 0.47 | 799.32 ± 0.5 | 807.2 ± 0.52 | 814.45 ± 0.55 | 821.19 ± 0.59
303.15 K, x2 = 0.502 | 815.09 ± 0.49 | 823.86 ± 0.5 | 831.94 ± 0.53 | 839.39 ± 0.55 | 846.29 ± 0.57
303.15 K, x2 = 0.5476 | 828.19 ± 0.49 | 837.03 ± 0.51 | 845.25 ± 0.53 | 852.82 ± 0.55 | 859.91 ± 0.57
303.15 K, x2 = 0.5883 | 840.82 ± 0.5 | 849.74 ± 0.51 | 858.02 ± 0.53 | 865.63 ± 0.55 | 872.72 ± 0.56
303.15 K, x2 = 0.665 | 867.33 ± 0.51 | 876.43 ± 0.52 | 884.86 ± 0.54 | 892.63 ± 0.55 | 899.87 ± 0.56
303.15 K, x2 = 0.7101 | 885.21 ± 0.52 | 894.46 ± 0.53 | 903.07 ± 0.54 | 911.02 ± 0.55 | 918.42 ± 0.56
303.15 K, x2 = 0.7993 | 925.09 ± 0.54 | 934.41 ± 0.55 | 943.03 ± 0.56 | 951.01 ± 0.56 | 958.41 ± 0.56
303.15 K, x2 = 0.9062 | 985.93 ± 0.58 | 995.33 ± 0.58 | 1004.09 ± 0.58 | 1012.2 ± 0.59 | 1019.78 ± 0.59
308.15 K, x2 = 0.0676 | 726.53 ± 0.44 | 734.45 ± 0.48 | 741.78 ± 0.52 | – | –
308.15 K, x2 = 0.2303 | 751.35 ± 0.45 | 759.73 ± 0.48 | 767.45 ± 0.52 | – | –
308.15 K, x2 = 0.2934 | 763 ± 0.46 | 771.51 ± 0.49 | 779.37 ± 0.52 | – | –
308.15 K, x2 = 0.4055 | 786.2 ± 0.47 | 794.99 ± 0.5 | 803.1 ± 0.52 | – | –
308.15 K, x2 = 0.502 | 810.29 ± 0.49 | 819.3 ± 0.5 | – | – | –
308.15 K, x2 = 0.5476 | 823.17 ± 0.49 | 832.33 ± 0.51 | – | – | –
308.15 K, x2 = 0.5883 | 835.71 ± 0.5 | 844.95 ± 0.51 | – | – | –
308.15 K, x2 = 0.665 | 861.96 ± 0.51 | 871.37 ± 0.52 | – | – | –
308.15 K, x2 = 0.7101 | 879.57 ± 0.52 | 889.19 ± 0.53 | – | – | –
308.15 K, x2 = 0.7993 | 919.3 ± 0.54 | 928.93 ± 0.55 | – | – | –
308.15 K, x2 = 0.9062 | 979.75 ± 0.57 | 989.47 ± 0.58 | – | – | –
